In patent US9206137B2, “N-Aryl pyrazole(thio)carboxamides” (BAYER INTELLECTUAL PROPERTY GMBH, priority 2010, dated 2015) one finds efficacy data, which are given here for one molecule.

This assay has as its system Sphaerotheca fuliginea. Nature of the assay: Sphaerotheca test (cucumber)/preventive. To be noted: preventive. Format: in vivo. An excerpt:
One day after this treatment, the plants are inoculated with an aqueous spore suspension of Sphaerotheca fuliginea.

Take `Cc1ccccc1-c1ccccc1NC(=O)c1c(C(F)F)nn(C)c1F` [102 from WO-2007/006806, 3-(difluoromethyl)-5-fluoro-1-methyl-N-(2′-methylbiphenyl-2-yl)-1H-pyrazole-4-carboxamide]: the efficacy reads like this: (Table A, dose 500 ppm) 20%; (500 ppm of active ingredient, evaluated 7 days after inoculation) “less than 20%”.
